Data as given in the NIST ThermoML archive (doi:10.1016/j.jct.2016.08.010).
Numbers after ± are expanded uncertainties.

Experiment: xn = mol fraction of the nth substance listed
Settings: 100 kPa, Liquid; for speed of sound: Frequency=3 MHz, Sing-around technique in a fixed-path interferometer; for mass density: Vibrating tube method

CCn1cc[n+](C)c1.F[B-](F)(F)F [1-ethyl-3-methylimidazolium tetrafluoroborate] + CCCCn1cc[n+](C)c1.F[B-](F)(F)F
Settings	mass density, 293.15 K [kg/m3]	mass density, 298.15 K [kg/m3]	speed of sound, 293.15 K [m/s]	speed of sound, 298.15 K [m/s]	speed of sound, 303.15 K [m/s]
x2 = 0	1283.9 ± 2	1279.9 ± 2	1631.1 ± 1.6	1619.2 ± 1.6	1607.4 ± 1.6
x2 = 0.0728	1274.4 ± 2	1270.8 ± 2	1628.1 ± 1.6	1616 ± 1.6	1604 ± 1.6
x2 = 0.1143	1269.1 ± 2	1265.7 ± 2	1626.4 ± 1.6	1614.2 ± 1.6	1602.2 ± 1.6
x2 = 0.148	1264.9 ± 2	1261.6 ± 2	1625 ± 1.6	1612.7 ± 1.6	1600.7 ± 1.6
x2 = 0.1737	1261.8 ± 2	1258.6 ± 2	1624 ± 1.6	1611.6 ± 1.6	1599.5 ± 1.6
x2 = 0.2204	1256.4 ± 2	1253.2 ± 2	1622 ± 1.6	1609.6 ± 1.6	1597.5 ± 1.6
x2 = 0.2684	1251.1 ± 2	1248 ± 2	1620 ± 1.6	1607.5 ± 1.6	1595.3 ± 1.6
x2 = 0.3155	1246.2 ± 2	1243.1 ± 2	1618 ± 1.6	1605.4 ± 1.6	1593.3 ± 1.6
x2 = 0.3619	1241.6 ± 2	1238.6 ± 2	1616 ± 1.6	1603.3 ± 1.6	1591.2 ± 1.6
x2 = 0.4167	1236.6 ± 2	1233.6 ± 2	1613.6 ± 1.6	1600.8 ± 1.6	–
x2 = 0.4759	1231.8 ± 2	1228.7 ± 2	1610.8 ± 1.6	1598 ± 1.6	–
x2 = 0.5282	1227.9 ± 2	1224.7 ± 2	1608.3 ± 1.7	1595.5 ± 1.7	–
x2 = 0.5742	1224.7 ± 2	1221.5 ± 2	1605.9 ± 1.7	1593.1 ± 1.7	–
x2 = 0.6356	1220.9 ± 2.1	1217.6 ± 2.1	1602.7 ± 1.7	1589.8 ± 1.7	–
x2 = 0.6835	1218.1 ± 2.1	1214.8 ± 2.1	1600 ± 1.7	1587.1 ± 1.7	–
x2 = 0.7381	1215.3 ± 2.1	1211.8 ± 2.1	1596.7 ± 1.7	1583.9 ± 1.7	–
x2 = 0.7892	1212.8 ± 2.1	1209.2 ± 2.1	1593.5 ± 1.7	1580.7 ± 1.7	–
x2 = 0.8364	1210.6 ± 2.1	1206.9 ± 2.1	1590.4 ± 1.7	1577.6 ± 1.7	–
x2 = 0.8932	1208 ± 2.1	1204.2 ± 2.1	1586.4 ± 1.7	1573.7 ± 1.7	–
